The source of these data is patent publication US8785478B2, “Viral polymerase inhibitors” (Biota Scientific Management Pty Ltd, priority 2012, dated 2014).

Values after ≈ are worked out from the molar mass of the structure shown. Where two headings read alike, the source gives them in different places.

Data set [1] is described as follows: Aqueous solubility (laser nephelometry). Type of data set: physicochemical. The following applies: for solubility at 30 min: aqueous assay buffer with 1% DMSO, kinetic from dmso stock, 30 minute incubation at 25° C.; for solubility in words: at both pH2 and pH 6.5. The procedure: Test compounds prepared in DMSO were screened in duplicate over a range of concentrations (1.6-100 ug/mL) in different aqueous media (for example a pH6.5 buffers which are relevant to the stomach and upper regions of the small intestine and therefore important when predicting the amount of drug likely to be in solution following oral administration). Test compounds were serially diluted in 100% DMSO ranging from 10-0.16 mg/mL. These titrated DMSO stocks were then further diluted 1:100 with assay buffer and added to test plates (UV Star Griener 384 well plates), maintaining the DMSO concentration at 1%.

The test system of data set [2] is genotype 1b (Con 1) subgenomic replicon cell line. The data set is described as follows: HCV replicon assay, genotype 1b (Renilla luciferase). Type of data set: cell-based. To be noted: Hepatitis C virus, genotype 1b replicon. As to the method:
(§1) A genotype 1b (Con 1) subgenomic replicon cell line based on Blight et al., Science 2000 290: 1972-1974, modified to express a Renilla luciferase reporter gene was used to assess antiviral activity of test compounds. Cell cultures were maintained in a sub-confluent state in DMEM with glutamine, 10% heat-inactivated foetal bovine serum (FBS) and G418 (Geneticin®).
(§2) For assay, cells were seeded at a density of 7000 cells/well into 96 well tissue culture trays in culture media lacking G418. Compounds were tested in a three fold dilution series, for example starting from 50 uM. After 72 hours incubation at 37° C. and 5% CO2, Renilla luciferase activity was quantified via the Promega Renilla Luciferase or Renilla-Glo™ Luciferase Assay Systems (Promega corporation. The same method was employed for replicon assays using subgenomic genotype 1a (H77) and 2a (JFH-1) replicon cell lines with a seeding cell density of 5000 cells/well for the 2a cell lines.
(§3) The compound concentration that reduced luciferase activity by 50% (EC50) was calculated using non-linear regression.

Another data set deals with T1, 1b (BK) NS5BΔ21 (Hepatitis C virus genotype 1b, UniProt P26663).
T1 construct: 100 nM, 1b (BK) NS5BΔ21
T1 sequence (P26663 2420-2989, stated change not applied): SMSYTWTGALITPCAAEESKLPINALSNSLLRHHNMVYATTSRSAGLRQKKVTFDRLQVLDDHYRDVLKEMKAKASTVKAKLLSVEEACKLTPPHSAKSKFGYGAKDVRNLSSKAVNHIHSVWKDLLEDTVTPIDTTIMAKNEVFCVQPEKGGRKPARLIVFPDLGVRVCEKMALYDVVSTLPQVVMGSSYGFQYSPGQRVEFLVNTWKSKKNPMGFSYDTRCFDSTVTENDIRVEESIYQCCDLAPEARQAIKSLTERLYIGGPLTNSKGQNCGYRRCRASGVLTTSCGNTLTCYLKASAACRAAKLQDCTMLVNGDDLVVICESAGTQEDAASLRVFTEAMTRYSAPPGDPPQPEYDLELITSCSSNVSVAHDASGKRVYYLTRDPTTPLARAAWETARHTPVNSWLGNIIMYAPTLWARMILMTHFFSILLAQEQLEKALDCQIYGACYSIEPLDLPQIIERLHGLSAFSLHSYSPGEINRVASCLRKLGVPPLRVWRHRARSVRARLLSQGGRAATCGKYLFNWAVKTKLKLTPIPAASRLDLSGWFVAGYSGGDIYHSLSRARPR
Kind of data set: HCV Polymerase Inhibition Assay. The data set is classed as biochemical. As to the method: HCV polymerase reactions were carried out using a modified method of Howe et al., Antimicrobial Agents and Chemotherapy 2004 48(12): 4813-4821. Reactions contained a final concentration of, 0.5% DMSO, 100 nM, 1b (BK) NS5BΔ21, 20 mM Tris-HCl pH 7.5, 5 mM MgCl2, 5 mM MnCl2, 3 mM DTT, 0.05% BSA, 0.2 U/μL RNasin, 10 μg/mL Poly(rC) template, GTP (at Km) and 0.05 μCi/μL ^33P-GTP in a total reaction volume of 50 μL. Compounds were tested in a three fold dilution series, for example starting from 50 μM. Reactions were initiated with the addition of GTP and terminated after 90 min with 50 μL ice cold 0.2 M EDTA. Terminated reactions were transferred to DEAE 96-well filter plates, unincorporated nucleotides washed from the filters and 50 μL scintillation fluid added prior to reading on a scintillation counter. The compound concentration that reduced ^33P-GTP incorporation by 50% (IC50) was calculated using non-linear regression.

In data set [3] the test system is subgenomic genotype 1a (H77) replicon cell line. The data set is described as follows: HCV replicon assay, genotype 1a (Renilla luciferase). Type of data set: cell-based. The following applies: Hepatitis C virus; genotype 1a replicon; read-out: G1a (EC50 μM). As to the method:
as §1, §2, §3
On the technique in general: A replicon is a self-replicating genome or part of one, used to study replication in cells.

Data set [4] in a line: Cytotoxicity analysis (MTT). Type of data set: cell-based. The following applies: genotype 1b replicon cells, three days, read-out: G1b (CC50 μM). The procedure: Cytotoxicity of compounds against genotype 1b replicon cells was determined via metabolism of the vital dye 3-(4,5-dimethylthiaxol-2-yl)-2,5-diphenyltetrazolium bromide (MTT, for example see Watanabe et al., Journal of Virological Methods 1994 48:257-265). Plates were prepared as described for the HCV Replicon assay and cytotoxicity of the test article was evaluated after three days. MTT was added to assay plates followed by three hour incubation at 37° C. Wells were aspirated to dryness and the formazan dye dissolved by the addition of isopropanol. Absorbance values were read at 540/690 nm). The compound concentration that reduced cell viability by 50% (CC50) was calculated using non-linear regression.

Data set [5] relates to subgenomic genotype 2a (JFH-1) replicon cell line. Kind of data set: HCV replicon assay, genotype 2a (Renilla luciferase). Type of data set: cell-based. The following applies: Hepatitis C virus; genotype 2a replicon; read-out: G2a (EC50 μM). As to the method:
as §1, §2, §3

Where [6] appears, read: aqueous buffer, pH 6.5, 1% DMSO, read-out: Solubility pH 6.5.
Setting [7] is: simulated gastric fluid, pH 2, 1% DMSO, read-out: Solubility pH 2.
Setting [8] is: NS5B G1b (IC50 μM), genotype 1b polymerase.
Setting [9] is: 72 hours, read-out: genotype 1b EC50 (μM) range.
The mark [10] stands for this setting: 1b polymerase IC50 (μM) range, genotype 1b NS5B, 33P-GTP incorporation.

Usually solubility stands for the dissolved amount per volume that the medium holds. For orientation: EC50 means the concentration that produces a half-maximal response. As usually defined, the IC50 is the concentration that gives 50% inhibition. The low end stands for greater potency in that assay, the high end for weaker potency in that assay. What is called CC50 is the concentration at which the toxic effect on the cells reaches its halfway point. Take `CCN(c1cc2nn(-c3ccc(C)nc3)c(C(=O)NC)c2cc1C1CC1)S(C)(=O)=O` [Compound A, 5-Cyclopropyl-6-[ethyl(methylsulfonyl)amino]-N-methyl-2-(6-methylpyridin-3-yl)-2H-indazole-3-carboxamide, reference compound]: the solubility at 30 min in data set [1] (setting [6]) is 6.3 to 12.5 µg/mL (≈ 14.7 to 29.2 µM); in data set [1] (setting [7]), less than 1.6 µg/mL. The solubility in words result in data set [1] is recorded as “very poorly soluble”. Also, the concentration giving a half-maximal response (EC50) is 0.774 µM in data set [2] (read-out: G1b (EC50 μM)), 3.17 µM in data set [3] and 3.59 µM in data set [5]. Further, the IC50 at 1b (BK) NS5BΔ21 (setting [8]) turned out to be 3.36 µM. Also, the CC50 at 3 days in data set [4] is greater than 50 µM.

Turning to `CNC(=O)c1c2cc(C3CC3)c(N(CCC3(C)COC3)S(C)(=O)=O)cc2nn1-c1ccc(C)cn1` [Compound 11, 5-cyclopropyl-N-methyl-6-{[2-(3-methyloxetan-3-yl)ethyl](methylsulfonyl)amino}-2-(5-methylpyridin-2-yl)-2H-indazole-3-carboxamide], the solubility at 30 min in data set [1] (setting [6]) and in data set [1] (setting [7]) was 50 to 100 µg/mL (≈ 100 to 201 µM) in each case. The EC50 is less than 0.1 µM in data set [2] (setting [9]), 0.028 µM in data set [2] (read-out: G1b (EC50 μM)), 0.013 µM in data set [3] and 0.183 µM in data set [5]. Further, the IC50 at 1b (BK) NS5BΔ21 (setting [10]) is 0.1 to 0.49 µM; at 1b (BK) NS5BΔ21 (setting [8]), 0.4 µM. In data set [4], the CC50 at 3 days is greater than 50 µM.

In the case of `CCN(c1cc2nn(-c3ccc(C)cn3)c(C(=O)NC)c2cc1C1CC1)S(C)(=O)=O` [Compound 5, 5-cyclopropyl-6-[ethyl(methylsulfonyl)amino]-N-methyl-2-(5-methylpyridin-2-yl)-2H-indazole-3-carboxamide], the solubility at 30 min in data set [1] (setting [6]) and in data set [1] (setting [7]) was greater than 100 µg/mL each time. In addition, the solubility in words result in data set [1] is on record as “good solubility”. The half-maximal effective concentration (EC50) was less than 0.1 µM in data set [2] (setting [9]), 0.03 µM in data set [2] (read-out: G1b (EC50 μM)), 0.068 µM in data set [3] and 0.147 µM in data set [5]. Further, the figures for the IC50 on 1b (BK) NS5BΔ21 (setting [10]) and at 1b (BK) NS5BΔ21 (setting [8]) were 0.1 to 0.49 µM and 0.283 µM, respectively. The “times more potent than Compound A” value on 1b (BK) NS5BΔ21 (in each of the HCV assays tested (polymerase, replicon)) is given as “at least 10 times”. In addition, the CC50 at 3 days in data set [4] was greater than 50 µM.
